Target: T1, α4β1 integrin (Homo sapiens, UniProt P05556+P13612)
T1 construct: endogenous in cells; host or cells: cells of heparinised human whole blood
Assay: Human whole blood cell adhesion to VCAM-1 coated magnetic beads, in vitro
Type: cell-based
Details: 1 mM manganese chloride, 1 h room temperature, control samples without antibody
Procedure: Whole human or animal blood (e.g. rat, mouse, dog), was collected into sodium heparin (10 Units/ml blood).
487.5 μl aliquots of heparinised naive human or animal whole blood were dispensed into reaction tubes containing 7.5 μl biotinylated VCAM beads and either 5 μl of a solution of a compound believed to be an α4β1 integrin inhibitor or, as a control, 5 μl of the solvent used to dissolve the compound and either with or without 2 μl anti-α4 antibody. […]
After this time the wash procedure with chilled PBS was carried out three times before the addition of 130 μl per well of 2% Triton X-100 (Sigma T-9284) in distilled water to lyse the cells adhering to the beads. The beads were once again captured by the Dynal MPC® magnet, 100 μl aliquots of the solution from each well was transferred to a clean 96 well flat-bottomed plate and the fluorescence of each well measured using an Fmax fluorimeter (Molecular Devices, Crawley, West Sussex), excitation 485 nm, emission 538 nm. […]
The tubes were rotated on a windmill mixer for 2 h at 4° C. before addition of 500 μl ice cold PBS and placing on a Dynal MPC® magnet for 10 min to recover the beads. […] The fluorescence of each well was measured using a fluorimeter, excitation 485 nm, emission 538 nm. Results were expressed as a percentage of the fluorescence in control samples containing no antibody. […]

T1 sequence (P13612 34-1032): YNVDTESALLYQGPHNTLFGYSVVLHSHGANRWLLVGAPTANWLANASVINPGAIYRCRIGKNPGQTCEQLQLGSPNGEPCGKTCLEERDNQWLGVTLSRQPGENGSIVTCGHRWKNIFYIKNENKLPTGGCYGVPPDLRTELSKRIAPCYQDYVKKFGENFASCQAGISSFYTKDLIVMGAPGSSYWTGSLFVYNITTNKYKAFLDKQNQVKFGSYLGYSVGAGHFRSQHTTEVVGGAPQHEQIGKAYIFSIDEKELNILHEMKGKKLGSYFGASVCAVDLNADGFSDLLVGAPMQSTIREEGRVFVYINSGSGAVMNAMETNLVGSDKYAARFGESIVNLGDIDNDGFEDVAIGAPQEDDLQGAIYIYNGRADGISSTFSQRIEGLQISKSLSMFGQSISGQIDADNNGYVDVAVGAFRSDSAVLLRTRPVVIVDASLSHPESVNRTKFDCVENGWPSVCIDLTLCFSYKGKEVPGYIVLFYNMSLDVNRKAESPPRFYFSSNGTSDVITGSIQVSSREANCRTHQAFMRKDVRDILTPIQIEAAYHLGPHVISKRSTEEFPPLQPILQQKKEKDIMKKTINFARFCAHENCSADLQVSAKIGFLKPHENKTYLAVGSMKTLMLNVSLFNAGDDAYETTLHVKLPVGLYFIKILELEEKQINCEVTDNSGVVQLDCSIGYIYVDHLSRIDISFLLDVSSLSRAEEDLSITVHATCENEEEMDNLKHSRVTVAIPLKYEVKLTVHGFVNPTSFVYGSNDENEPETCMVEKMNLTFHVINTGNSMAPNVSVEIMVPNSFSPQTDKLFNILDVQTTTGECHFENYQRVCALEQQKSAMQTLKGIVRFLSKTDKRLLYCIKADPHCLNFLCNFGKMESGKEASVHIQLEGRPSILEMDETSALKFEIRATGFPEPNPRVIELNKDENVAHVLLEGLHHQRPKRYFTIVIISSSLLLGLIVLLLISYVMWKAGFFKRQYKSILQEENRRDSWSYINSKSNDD
T1 sequence (P05556 21-798): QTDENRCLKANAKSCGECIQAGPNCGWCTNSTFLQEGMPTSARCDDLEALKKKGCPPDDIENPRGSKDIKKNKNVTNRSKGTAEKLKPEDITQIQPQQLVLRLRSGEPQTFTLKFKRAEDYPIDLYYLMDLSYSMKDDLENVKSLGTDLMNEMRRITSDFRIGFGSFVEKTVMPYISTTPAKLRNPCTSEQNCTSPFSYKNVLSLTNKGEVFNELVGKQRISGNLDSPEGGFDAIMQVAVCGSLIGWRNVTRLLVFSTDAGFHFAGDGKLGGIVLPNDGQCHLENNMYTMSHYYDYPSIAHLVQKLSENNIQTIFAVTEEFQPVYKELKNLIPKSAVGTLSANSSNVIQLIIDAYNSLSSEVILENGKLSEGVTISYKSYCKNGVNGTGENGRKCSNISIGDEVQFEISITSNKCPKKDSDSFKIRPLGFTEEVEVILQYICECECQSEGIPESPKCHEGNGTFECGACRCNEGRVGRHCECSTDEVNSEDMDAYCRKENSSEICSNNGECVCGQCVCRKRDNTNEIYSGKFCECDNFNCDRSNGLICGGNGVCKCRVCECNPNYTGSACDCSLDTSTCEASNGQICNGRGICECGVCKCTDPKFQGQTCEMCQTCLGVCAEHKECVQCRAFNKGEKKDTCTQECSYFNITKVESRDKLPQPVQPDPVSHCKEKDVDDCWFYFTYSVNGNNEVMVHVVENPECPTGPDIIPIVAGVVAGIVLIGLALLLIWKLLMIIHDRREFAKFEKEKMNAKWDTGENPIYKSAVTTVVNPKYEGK

Manganese chloride [Mn^2+]
increase of whole blood cell adhesion to VCAM-1 coated beads: approximately 2 fold

From US20040029186A1, “Methods” (priority 2000, published 2004)
